The subject of experiment [1] is Gardnerella vaginalis ATCC 14018. Nature of the experiment: time kill assay, G. vaginalis. Type of experiment: cell-based. The procedure: A time kill assay was used to test the effects of varying concentrations of proguanil on a culture of Gardnerella vaginalis ATCC 14018. An inoculum of G. vaginalis was prepared and inoculated in vials containing Brain Heart Infusion/Hemoglobin broth containing proguanil concentrations of 160, 80, 16, 8, 1.6 μg/ml. A growth control using phosphate buffered saline A (PBSA) plus a Brain Heart Infusion/Hemoglobin broth was used in place of the drug because it has no antimicrobial effect. DGME was the solvent used to dissolve the proguanil, accordingly, 10% DGME in broth was used as the solvent control. These inoculated broth solutions were then allowed to incubate for a period of 72 hours. Samples were taken at 0, 4, 24, 48 and 72 hours and spiral plated so the CFU/ml could be calculated.

Experiment [2] concerns Streptococcus agalactiae ATCC 49446. As to the kind of experiment: time kill assay, S. agalactiae (Group B). Type of experiment: cell-based. The method, then:
Streptococcus agalactiae (Group B) infections can lead to skin diseases such as erysipelas and cellulitis. A time kill assay was used to test the effects of varying concentrations of proguanil on a culture of Streptococcus agalactiae ATCC 49446. An inoculum of S. agalactiae was prepared and inoculated in vials containing Muller Hinton II broth and proguanil concentrations of 160, 80, 16, 8, and 1.6 μg/ml. A growth control using phosphate buffered saline A (PBSA) plus Mueller Hinton II broth was used in place of the drug because it has no antimicrobial effect. DGME was the solvent used to dissolve the proguanil, accordingly, 10% DGME was used as the solvent control. These inoculated broth solutions were then allowed to incubate for a period of 72 hours. Samples were taken at 0, 4, 24, 48 and 72 hours and spiral plated so the CFU/ml could be calculated. The effects of proguanil on the S. agalactiae were observed.

Structures are written as SMILES.

With `CC(C)NC(=N)NC(=N)Nc1ccc(Cl)cc1` [Proguanil, N-(4-Chlorophenyl)-N′-(1-methylethyl)imidodicarbonimidic diamide], the “effect on the bacteria” value is “killing effect” in experiment [1] (160 μg/ml and 80 μg/ml, 4 hours through 72 hours); “dramatic inhibition” in experiment [2] (160 μg/ml). Moreover, in experiment [1] (16, 8, and 1.6 μg/ml), the inhibition of growth result is listed as “no or little inhibition of growth”. For the same compound, the CFU/ml in experiment [1] (160 and 80 μg/ml, T=24, 48 and 72 hours) was 0 CFU/ml; in experiment [2] (160 μg/ml, T=48 and 72 hours), 0 CFU/ml. Moreover, the “Relative Sensitivity (Compared to Other Strains Tested)” value was “Very Sensitive” in experiment [1] (Gardnerella vaginalis ATCC 14018) and “Moderately” in experiment [2] (Streptococcus agalactiae (Group B) ATCC 49446). Besides, the “Approximate Inhibitory Level” value is 80 µg/mL in experiment [1] (Gardnerella vaginalis ATCC 14018, level at which partial or total inhibition of growth is observed) and 160 µg/mL in experiment [2] (Streptococcus agalactiae (Group B) ATCC 49446, level at which partial or total inhibition of growth is observed). The “effect on CFU/ml” value in experiment [2] (80 μg/ml) was “slight effect”; in experiment [2] (all other concentrations (16, 8, 1.6 μg/ml)), “very similar and near the CFU/ml of the Mueller Hinton II broth control”.
